Experiment [1] deals with Proteus mirabilis 18. The experiment in a line: Minimal inhibitory concentration (MIC) by agar streak, HI-agar, 37° C., 20 hours. In kind it is cell-based. As to conditions: 10^6 viable cells per ml, 37° C. for 20 hours. As to the method:
(§1) One loopful of an overnight culture of each test strain in Trypticase-soy broth (10^6 viable cells per ml.) was streaked on heart infusion agar (HI-agar) containing graded concentrations of antibiotics, and the minimal inhibitory concentration (MIC) was expressed in terms of μg/ml after incubation at 37° C. for 20 hours.

Experiment [2] relates to Klebsiella pneumoniae 20. Described as above. In kind it is cell-based. As to conditions: 10^6 viable cells per ml, 37° C. for 20 hours. As for the experimental part: as §1

From patent US4327093A, “3,7-Disubstituted-2 or 3-cephem-4-carboxylic acid compounds” (Fujisawa Pharmaceutical Co., Ltd., priority 1978, dated 1982) come the findings set out here.

Converted amounts (≈) assume the structure as drawn.

What is called MIC is the least concentration at which growth counts as inhibited.

Turning to `CO/N=C(\C(=O)NC1C(=O)N2C(C(=O)O)=C(COC(=O)N3CCN(C)CC3)CSC12)c1csc(N)n1` (stereo not shown) [(1)], the MIC in experiment [1] was found to be 0.05 µg/mL (≈ 0.0927 µM); in experiment [2] it was 0.1 µg/mL (≈ 0.185 µM).

Turning to `CO/N=C(\C(=O)NC1C(=O)N2C(C(=O)O)=C(COC(=O)N3CCN(C)CC3)CSC12)c1nsc(N)n1` (stereo not shown) [(2)], the figures for the MIC in experiment [1] and in experiment [2] were 0.2 µg/mL (≈ 0.37 µM) and 0.05 µg/mL (≈ 0.0925 µM), respectively.
